Data as given in US20230066008A1, “ANTIPARASITIC COMPOSITION” (DERMALIQ THERAPEUTICS, INC., priority 2020, published 2023).
Where two headings read alike, the source gives them in different places.

Details: for Solubility (%w/v): crotamiton tests
Description: 500 mg crotamiton (SynTech, Ph.Eur. grade) is weighed in a 5-ml volumetric flask; the flask is then filled to 5 ml with F6H8 (Novaliq, purity >99%), closed and shaken for 5 min at 280 rpm, RT.

CC=CC(=O)N(CC)c1ccccc1C [Crotamiton, crotamiton]
Appearance of resulting solution (100 mg/ml (10% w/v) in F6H8, shaken 5 min at 280 rpm, RT): clear
Solubility (%w/v) (solvent F4H5): >12%w/v
Solubility (%w/v) (solvent F6H2): ^~6%w/v
Solubility (%w/v) (solvent F6H8): >12%w/v
